According to the supplement of paper PMC4862054:

What was measured:
Details in all cases: incubation time: 72 h
CAL-51 [1] = test: normalised viability (% of control), CellTiter-Blue; higher = more viable cells (about 100 = DMSO control)
Method in brief: (§1)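 Breast cancer cell lines were treated for 72 h in 384-well format and measured by CellTiter-Blue fluorescence at 560/590 nm. Results were normalised per plate to vehicle (100) and a positive kill control (0). The entry is normalised viability at a single listed concentration of the series.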

CAL-85-1 [2] = test: as above
Method in brief: as §1

HCC1599 [3] = test: as above
Method in brief: as §1

HCC1937 [4] = test: as above
Method in brief: as §1

HDQ-P1 [5] = test: as above
Method in brief: as §1

MDA-MB-468 [6] = test: as above
Method in brief: as §1

MFM-223 [7] = test: as above
Method in brief: as §1

BT-474 = test: drug sensitivity score (DSS), CellTox Green (DSS (AUC-based score)); higher = stronger drug effect (viability inhibition or cytotoxicity); extreme values may be limits of the assay
Method in brief: (§2)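 Breast cancer cell lines were seeded in 20 µl suspension into 384-well plates already holding compound and incubated for 72 h. Each compound was tested at 5 concentrations in 10-fold steps across its own 10,000-fold range. Plates were normalised to 0.1 % DMSO and a positive kill control after CellTox Green and then CellTiter-Glo readings. The area under the fitted dose-response curve served as the basis for the drug sensitivity score.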

BT-549 = test: as above
Method in brief: as §2

CAL-120 = test: as above
Method in brief: as §2

CAL-148 = test: as above
Method in brief: as §2

CAL-51 [8] = test: as above
Method in brief: as §2

CAL-85-1 [9] = test: as above
Method in brief: as §2

DU-4475 = test: as above
Method in brief: as §2

HCC1143 = test: as above
Method in brief: as §2

HCC1599 [10] = test: as above
Method in brief: as §2

HCC1937 [11] = test: as above
Method in brief: as §2

HDQ-P1 [12] = test: as above
Method in brief: as §2

Hs578T = test: as above
Method in brief: as §2

MCF-10A = test: as above
Method in brief: as §2

MDA-MB-231 = test: as above
Method in brief: as §2

MDA-MB-436 = test: as above
Method in brief: as §2

MDA-MB-453 = test: as above
Method in brief: as §2

MFM-223 [13] = test: as above
Method in brief: as §2

MDA-MB-468 [14] = test: as above
Method in brief: as §2

N.N.[Cl][Pt][Cl] [Cisplatin]
normalised viability (CAL-51 [1]; 3 nM): 107%
normalised viability (CAL-51 [1]; 30 nM): 97.9%
normalised viability (CAL-51 [1]; 100 nM): 109%
normalised viability (CAL-85-1 [2]; 3 nM): 96.2%
normalised viability (CAL-85-1 [2]; 30 nM): 87.7%
normalised viability (CAL-85-1 [2]; 100 nM): 95.7%
normalised viability (HCC1599 [3]; 10 nM): 100%
normalised viability (HCC1599 [3]; 1000 nM): 93.4%
normalised viability (HCC1599 [3]; 10000 nM): 86.7%
normalised viability (HCC1937 [4]; 10 nM): 87%
normalised viability (HCC1937 [4]; 1000 nM): 106%
normalised viability (HCC1937 [4]; 10000 nM): 105%
normalised viability (HDQ-P1 [5]; 3 nM): 116%
normalised viability (HDQ-P1 [5]; 30 nM): 118%
normalised viability (HDQ-P1 [5]; 100 nM): 111%
normalised viability (MDA-MB-468 [6]; 10 nM): 101%
normalised viability (MDA-MB-468 [6]; 1000 nM): 101%
normalised viability (MDA-MB-468 [6]; 10000 nM): 106%
normalised viability (MFM-223 [7]; 10 nM): 88.5%
normalised viability (MFM-223 [7]; 1000 nM): 91%
normalised viability (MFM-223 [7]; 10000 nM): 99.1%
drug sensitivity score (BT-474): 0
drug sensitivity score (BT-549): 0
drug sensitivity score (CAL-120): 0
drug sensitivity score (CAL-148): 0
drug sensitivity score (CAL-51 [8]): 0
drug sensitivity score (CAL-85-1 [9]): 0
drug sensitivity score (DU-4475): 0
drug sensitivity score (HCC1143): 0
drug sensitivity score (HCC1599 [10]): 0
drug sensitivity score (HCC1937 [11]): 0
drug sensitivity score (HDQ-P1 [12]): 0
drug sensitivity score (Hs578T): 0
drug sensitivity score (MCF-10A): 0
drug sensitivity score (MDA-MB-231): 0
drug sensitivity score (MDA-MB-436): 0
drug sensitivity score (MDA-MB-453): 0
drug sensitivity score (MFM-223 [13]): 0

C=C(c1ccc(C(=O)O)cc1)c1cc2c(cc1C)C(C)(C)CCC2(C)C [Bexarotene]
normalised viability (CAL-51 [1]; 3 nM): 82%
normalised viability (CAL-51 [1]; 30 nM): 88.7%
normalised viability (CAL-51 [1]; 100 nM): 88.5%
normalised viability (CAL-85-1 [2]; 3 nM): 94.9%
normalised viability (CAL-85-1 [2]; 30 nM): 91.6%
normalised viability (CAL-85-1 [2]; 100 nM): 92%
normalised viability (HCC1599 [3]; 10 nM): 81.2%
normalised viability (HCC1599 [3]; 1000 nM): 72.2%
normalised viability (HCC1599 [3]; 10000 nM): 82.1%
normalised viability (HCC1937 [4]; 10 nM): 82.3%
normalised viability (HCC1937 [4]; 1000 nM): 82.2%
normalised viability (HCC1937 [4]; 10000 nM): 82.1%
normalised viability (HDQ-P1 [5]; 3 nM): 89.3%
normalised viability (HDQ-P1 [5]; 30 nM): 84.9%
normalised viability (HDQ-P1 [5]; 100 nM): 102%
normalised viability (MDA-MB-468 [6]; 10 nM): 108%
normalised viability (MDA-MB-468 [6]; 1000 nM): 100%
normalised viability (MDA-MB-468 [6]; 10000 nM): 110%
normalised viability (MFM-223 [7]; 10 nM): 101%
normalised viability (MFM-223 [7]; 1000 nM): 103%
normalised viability (MFM-223 [7]; 10000 nM): 96.5%
drug sensitivity score (BT-474): 0
drug sensitivity score (BT-549): 0
drug sensitivity score (CAL-120): 0
drug sensitivity score (CAL-148): 0
drug sensitivity score (CAL-51 [8]): 0
drug sensitivity score (CAL-85-1 [9]): 0
drug sensitivity score (DU-4475): 0
drug sensitivity score (HCC1143): 0
drug sensitivity score (HCC1599 [10]): 0
drug sensitivity score (HCC1937 [11]): 0
drug sensitivity score (HDQ-P1 [12]): 0
drug sensitivity score (MCF-10A): 0
drug sensitivity score (MDA-MB-231): 0
drug sensitivity score (MDA-MB-436): 0
drug sensitivity score (MDA-MB-453): 0
drug sensitivity score (MDA-MB-468 [14]): 0
drug sensitivity score (MFM-223 [13]): 0

NC(=O)Nc1cc(-c2cccc(F)c2)sc1C(=O)N[C@H]1CCCNC1 [AZD 7762]
normalised viability (CAL-51 [1]; 0.3 nM): 101%
normalised viability (CAL-51 [1]; 3 nM): 93.7%
normalised viability (CAL-51 [1]; 10 nM): 102%
normalised viability (CAL-85-1 [2]; 0.3 nM): 106%
normalised viability (CAL-85-1 [2]; 3 nM): 98.6%
normalised viability (CAL-85-1 [2]; 10 nM): 99.4%
normalised viability (HCC1599 [3]; 1 nM): 93.2%
normalised viability (HCC1599 [3]; 100 nM): 73.1%
normalised viability (HCC1599 [3]; 1000 nM): 53.9%
normalised viability (HCC1937 [4]; 1 nM): 104%
normalised viability (HCC1937 [4]; 100 nM): 108%
normalised viability (HCC1937 [4]; 1000 nM): 27.9%
normalised viability (HDQ-P1 [5]; 0.3 nM): 108%
normalised viability (HDQ-P1 [5]; 3 nM): 114%
normalised viability (HDQ-P1 [5]; 10 nM): 115%
normalised viability (MDA-MB-468 [6]; 1 nM): 107%
normalised viability (MDA-MB-468 [6]; 100 nM): 103%
normalised viability (MDA-MB-468 [6]; 1000 nM): 22.2%
normalised viability (MFM-223 [7]; 1 nM): 101%
normalised viability (MFM-223 [7]; 100 nM): 104%
normalised viability (MFM-223 [7]; 1000 nM): 51.7%

Cc1ccc(C(=O)Nc2ccc(CN3CCN(C)CC3)c(C(F)(F)F)c2)cc1C#Cc1cnc2cccnn12 [Ponatinib]
normalised viability (CAL-51 [1]; 0.3 nM): 95.2%
normalised viability (CAL-51 [1]; 3 nM): 97.7%
normalised viability (CAL-51 [1]; 10 nM): 89.5%
normalised viability (CAL-85-1 [2]; 0.3 nM): 92.5%
normalised viability (CAL-85-1 [2]; 3 nM): 85.4%
normalised viability (CAL-85-1 [2]; 10 nM): 101%
normalised viability (HCC1599 [3]; 1 nM): 95.4%
normalised viability (HCC1599 [3]; 100 nM): 95.4%
normalised viability (HCC1599 [3]; 1000 nM): 64.9%
normalised viability (HCC1937 [4]; 1 nM): 78.3%
normalised viability (HCC1937 [4]; 100 nM): 115%
normalised viability (HDQ-P1 [5]; 0.3 nM): 102%
normalised viability (HDQ-P1 [5]; 3 nM): 126%
normalised viability (HDQ-P1 [5]; 10 nM): 115%
normalised viability (MDA-MB-468 [6]; 1 nM): 98.2%
normalised viability (MDA-MB-468 [6]; 1000 nM): 78.7%
normalised viability (MFM-223 [7]; 1 nM): 100%
normalised viability (MFM-223 [7]; 1000 nM): 35.7%

CCN(CCCOc1ccc2c(Nc3cc(CC(=O)Nc4cccc(F)c4)[nH]n3)ncnc2c1)CCOP(=O)(O)O [Barasertib]
normalised viability (CAL-51 [1]; 0.3 nM): 106%
normalised viability (CAL-51 [1]; 3 nM): 103%
normalised viability (CAL-51 [1]; 10 nM): 83.6%
normalised viability (CAL-85-1 [2]; 0.3 nM): 102%
normalised viability (CAL-85-1 [2]; 3 nM): 89.8%
normalised viability (CAL-85-1 [2]; 10 nM): 93.2%
normalised viability (HCC1599 [3]; 1 nM): 79.4%
normalised viability (HCC1599 [3]; 100 nM): 81.6%
normalised viability (HCC1599 [3]; 1000 nM): 94.2%
normalised viability (HCC1937 [4]; 1 nM): 69%
normalised viability (HCC1937 [4]; 100 nM): 44.3%
normalised viability (HCC1937 [4]; 1000 nM): 52.8%
normalised viability (HDQ-P1 [5]; 0.3 nM): 103%
normalised viability (HDQ-P1 [5]; 3 nM): 106%
normalised viability (HDQ-P1 [5]; 10 nM): 109%
normalised viability (MDA-MB-468 [6]; 1 nM): 115%
normalised viability (MDA-MB-468 [6]; 100 nM): 34.4%
normalised viability (MDA-MB-468 [6]; 1000 nM): 26.5%
normalised viability (MFM-223 [7]; 1 nM): 103%
normalised viability (MFM-223 [7]; 100 nM): 95.7%
normalised viability (MFM-223 [7]; 1000 nM): 85.8%

CC(C)Cn1cnc2c(N)nc3ccccc3c21 [Imiquimod]
normalised viability (CAL-51 [1]; 3 nM): 103%
normalised viability (CAL-51 [1]; 30 nM): 97.9%
normalised viability (CAL-51 [1]; 100 nM): 98.1%
normalised viability (CAL-85-1 [2]; 3 nM): 100%
normalised viability (CAL-85-1 [2]; 30 nM): 90.6%
normalised viability (CAL-85-1 [2]; 100 nM): 105%
normalised viability (HCC1599 [3]; 10 nM): 102%
normalised viability (HCC1599 [3]; 1000 nM): 100%
normalised viability (HCC1599 [3]; 10000 nM): 109%
normalised viability (HCC1937 [4]; 10 nM): 86.2%
normalised viability (HCC1937 [4]; 1000 nM): 82.5%
normalised viability (HCC1937 [4]; 10000 nM): 88.5%
normalised viability (HDQ-P1 [5]; 3 nM): 91.7%
normalised viability (HDQ-P1 [5]; 30 nM): 92%
normalised viability (HDQ-P1 [5]; 100 nM): 96.6%
normalised viability (MDA-MB-468 [6]; 10 nM): 102%
normalised viability (MDA-MB-468 [6]; 1000 nM): 103%
normalised viability (MDA-MB-468 [6]; 10000 nM): 107%
normalised viability (MFM-223 [7]; 10 nM): 108%
normalised viability (MFM-223 [7]; 1000 nM): 98.3%
normalised viability (MFM-223 [7]; 10000 nM): 102%
drug sensitivity score (BT-474): 0
drug sensitivity score (BT-549): 0.506
drug sensitivity score (CAL-120): 0
drug sensitivity score (CAL-148): 0
drug sensitivity score (CAL-51 [8]): 0
drug sensitivity score (CAL-85-1 [9]): 1.01
drug sensitivity score (DU-4475): 0
drug sensitivity score (HCC1143): 0
drug sensitivity score (HCC1599 [10]): 0
drug sensitivity score (HCC1937 [11]): 0
drug sensitivity score (HDQ-P1 [12]): 1.63
drug sensitivity score (MCF-10A): 0
drug sensitivity score (MDA-MB-231): 0
drug sensitivity score (MDA-MB-436): 0
drug sensitivity score (MDA-MB-453): 0
drug sensitivity score (MDA-MB-468 [14]): 3.54
drug sensitivity score (MFM-223 [13]): 0
